# In ChEMBL document CHEMBL1201862, “PubChem BioAssay data set” (2004):
# Active and inactive are the calls of the source.
# How the values were obtained:
# [1] = NIH3T3 cell viability loss – ATP luminescence, mouse fibroblasts, counter-screen, dose response (AID 2010); format: functional, cell-based;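 also: cells exposed to compound for about 90 hours before reading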
# [2] = molecular target: T1, Corticotropin-releasing factor receptor 2/Corticotropin-releasing factor-binding protein (Homo sapiens, UniProt P24387+Q13324); test: Dose Response confirmation of uHTS hits for small molecule antagonists of the CRF-binding protein and CRF-R2 receptor complex.; format: functional; details: read-out: IC50_Mean
# T1 sequence (Q13324 whole entry): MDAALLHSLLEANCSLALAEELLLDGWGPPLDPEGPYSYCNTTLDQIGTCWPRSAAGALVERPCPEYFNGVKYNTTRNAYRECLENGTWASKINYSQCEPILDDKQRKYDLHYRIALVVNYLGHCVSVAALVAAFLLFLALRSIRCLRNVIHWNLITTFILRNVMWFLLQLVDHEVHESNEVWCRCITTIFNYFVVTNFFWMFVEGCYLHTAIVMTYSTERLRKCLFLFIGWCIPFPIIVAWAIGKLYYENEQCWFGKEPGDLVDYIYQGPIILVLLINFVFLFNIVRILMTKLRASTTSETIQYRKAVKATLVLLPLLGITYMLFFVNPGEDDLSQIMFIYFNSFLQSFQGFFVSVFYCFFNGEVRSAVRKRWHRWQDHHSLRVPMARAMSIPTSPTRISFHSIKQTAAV
# T1 sequence (P24387 whole entry): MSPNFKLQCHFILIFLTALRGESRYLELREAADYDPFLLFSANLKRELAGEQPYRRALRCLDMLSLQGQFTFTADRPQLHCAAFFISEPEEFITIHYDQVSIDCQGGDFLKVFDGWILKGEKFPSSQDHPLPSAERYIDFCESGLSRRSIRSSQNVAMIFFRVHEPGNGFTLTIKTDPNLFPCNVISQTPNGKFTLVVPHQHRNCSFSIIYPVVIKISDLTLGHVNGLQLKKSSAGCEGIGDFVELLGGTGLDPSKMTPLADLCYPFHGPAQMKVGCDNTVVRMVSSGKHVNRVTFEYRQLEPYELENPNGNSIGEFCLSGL
# [3] = Trypanosoma cruzi growth suppression in host cells – NIH3T3 host cells, beta-gal luminescence, confirmation (AID 2044); format: functional, cell-based;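 also: intracellular parasites grown in NIH/3T3 mouse fibroblasts as host cells; luminescent beta-galactosidase reporter signal from transgenic T. cruzi replicating inside host cells; inhibitors lower the luminescence signal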
# [4] = viability loss in THP-1 monocytes – THP-1 cells, cytotoxicity control for Vif-APOBEC3G degradation inhibitor project, dose response (AID 1117359); format: functional; details: THP-1
# [5] = molecular target: T1, Corticotropin-releasing factor receptor 2/Corticotropin-releasing factor-binding protein; test: activators of CRF receptor 2 with binding protein – uHTS hits, confirmation (AID 602473); format: functional; details: read-out: EC50_Mean
# [6] = molecular target: T2, Short transient receptor potential channel 4 (Mus musculus, UniProt Q9QUQ5); test: block of DAMGO-driven TRPC4 calcium entry – cell-based, HEK293 TRPC4/mu-opioid, Fluo-4 calcium, dose response (AID 434942); format: functional;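 also: potency of inhibitors blocking the TRPC4 calcium response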
# T2 sequence (Q9QUQ5 whole entry): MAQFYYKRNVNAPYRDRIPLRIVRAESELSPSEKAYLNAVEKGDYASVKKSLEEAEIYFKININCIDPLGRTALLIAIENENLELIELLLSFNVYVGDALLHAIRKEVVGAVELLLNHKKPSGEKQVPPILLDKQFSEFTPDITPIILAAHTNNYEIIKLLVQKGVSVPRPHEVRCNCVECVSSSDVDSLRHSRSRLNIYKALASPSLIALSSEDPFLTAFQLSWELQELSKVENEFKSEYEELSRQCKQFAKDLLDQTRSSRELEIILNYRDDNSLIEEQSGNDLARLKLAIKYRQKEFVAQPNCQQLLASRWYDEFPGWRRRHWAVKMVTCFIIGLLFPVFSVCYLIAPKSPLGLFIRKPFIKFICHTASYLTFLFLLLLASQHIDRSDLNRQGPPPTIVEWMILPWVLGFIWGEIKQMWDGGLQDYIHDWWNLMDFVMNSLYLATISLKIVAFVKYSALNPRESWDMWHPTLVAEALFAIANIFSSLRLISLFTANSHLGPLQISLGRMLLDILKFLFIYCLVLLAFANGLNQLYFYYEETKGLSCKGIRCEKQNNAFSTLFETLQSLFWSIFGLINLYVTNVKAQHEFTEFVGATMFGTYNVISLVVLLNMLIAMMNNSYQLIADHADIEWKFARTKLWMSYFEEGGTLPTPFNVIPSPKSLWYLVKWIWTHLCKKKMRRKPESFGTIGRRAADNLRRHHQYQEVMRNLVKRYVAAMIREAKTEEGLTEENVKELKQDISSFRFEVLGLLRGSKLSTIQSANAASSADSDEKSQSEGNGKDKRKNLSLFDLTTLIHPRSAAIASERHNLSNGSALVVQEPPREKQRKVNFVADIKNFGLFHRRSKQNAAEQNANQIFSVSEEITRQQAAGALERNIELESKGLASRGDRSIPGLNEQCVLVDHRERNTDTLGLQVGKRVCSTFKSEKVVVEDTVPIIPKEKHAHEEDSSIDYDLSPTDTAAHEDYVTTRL
# HEK293 [7] = test: NOD2 signaling inhibitors in MDP-stimulated cells, cell-based, uHTS, luminescence (AID 2001); format: functional; details: Homo sapiens
# HEK293 [8] = test: cells; format: functional, cell-based; details: Homo sapiens
# HEK293 [9] = test: cells; format: functional, cell-based; details: Homo sapiens; remark: listed apart in the source
# HEK293 [10] = test: inhibition of NOD1-driven NF-kB reporter – cell-based, luminescence, uHTS, primary screen (AID 1578); format: functional; details: Homo sapiens
# [11] = molecular target: Nucleotide-binding oligomerization domain-containing protein 2 (Homo sapiens, UniProt Q9HC29); test: inhibition of NOD2-driven NF-kB reporter – cell-based, luminescence, uHTS, HEK293 (AID 1566); format: functional
# Sequence of Nucleotide-binding oligomerization domain-containing protein 2 (Q9HC29 whole entry, the tested form may be a part): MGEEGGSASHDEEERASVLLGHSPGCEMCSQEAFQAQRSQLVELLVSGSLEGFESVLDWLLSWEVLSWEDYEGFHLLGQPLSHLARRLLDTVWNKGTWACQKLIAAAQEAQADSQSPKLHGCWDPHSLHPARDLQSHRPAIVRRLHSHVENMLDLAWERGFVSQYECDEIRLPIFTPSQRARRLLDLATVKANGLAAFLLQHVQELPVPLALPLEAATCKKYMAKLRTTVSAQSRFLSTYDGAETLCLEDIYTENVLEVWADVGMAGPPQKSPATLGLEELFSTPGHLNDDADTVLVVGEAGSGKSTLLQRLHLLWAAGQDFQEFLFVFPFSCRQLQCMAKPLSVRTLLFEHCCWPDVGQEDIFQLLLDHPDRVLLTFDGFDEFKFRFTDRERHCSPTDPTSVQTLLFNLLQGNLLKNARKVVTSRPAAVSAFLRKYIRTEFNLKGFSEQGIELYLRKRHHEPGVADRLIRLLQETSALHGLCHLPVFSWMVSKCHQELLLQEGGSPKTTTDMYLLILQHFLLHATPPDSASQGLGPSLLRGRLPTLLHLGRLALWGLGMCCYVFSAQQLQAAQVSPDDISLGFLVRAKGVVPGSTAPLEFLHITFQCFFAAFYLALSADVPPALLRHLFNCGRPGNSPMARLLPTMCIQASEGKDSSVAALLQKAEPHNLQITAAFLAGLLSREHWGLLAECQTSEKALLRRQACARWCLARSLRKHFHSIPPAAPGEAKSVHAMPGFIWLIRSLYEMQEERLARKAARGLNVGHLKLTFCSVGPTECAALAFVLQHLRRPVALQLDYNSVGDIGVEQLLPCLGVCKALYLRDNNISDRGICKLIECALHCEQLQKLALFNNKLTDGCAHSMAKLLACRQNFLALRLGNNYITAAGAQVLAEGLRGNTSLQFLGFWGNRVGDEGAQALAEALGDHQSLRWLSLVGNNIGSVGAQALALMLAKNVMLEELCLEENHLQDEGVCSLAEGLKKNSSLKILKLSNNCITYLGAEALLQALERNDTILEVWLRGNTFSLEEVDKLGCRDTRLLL
# HEK293 [12] = test: cells; format: functional, cell-based; details: Homo sapiens; remark: listed apart in the source
# Estrogen receptor = molecular target: T3, Estrogen receptor (Homo sapiens, UniProt P03372);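 also: potency for inhibiting coactivator peptide recruitment to the receptor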
# T3 sequence (P03372 whole entry): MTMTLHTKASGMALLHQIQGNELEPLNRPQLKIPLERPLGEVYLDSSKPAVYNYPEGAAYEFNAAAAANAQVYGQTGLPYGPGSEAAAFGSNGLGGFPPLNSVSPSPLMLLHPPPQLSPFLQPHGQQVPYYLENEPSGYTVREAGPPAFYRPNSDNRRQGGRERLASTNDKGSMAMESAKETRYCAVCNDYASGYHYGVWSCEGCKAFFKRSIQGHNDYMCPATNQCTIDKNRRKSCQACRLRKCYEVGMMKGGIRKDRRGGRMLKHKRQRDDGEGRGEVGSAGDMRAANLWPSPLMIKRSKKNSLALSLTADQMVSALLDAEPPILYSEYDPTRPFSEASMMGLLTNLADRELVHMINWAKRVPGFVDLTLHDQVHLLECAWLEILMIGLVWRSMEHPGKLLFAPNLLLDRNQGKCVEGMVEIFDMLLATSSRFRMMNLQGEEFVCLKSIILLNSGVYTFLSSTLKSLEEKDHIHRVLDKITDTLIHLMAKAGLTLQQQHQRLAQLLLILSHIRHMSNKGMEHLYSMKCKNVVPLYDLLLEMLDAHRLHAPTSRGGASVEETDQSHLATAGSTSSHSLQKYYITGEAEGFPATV
# [13] = Vero E6 cell cytotoxicity, dose response, cytotoxicity control for non-replicating M. tuberculosis project, secondary assay (AID 492998); format: functional, VeroE6; details: Vero C1008
# [14] = THP-1 cell cytotoxicity, dose response, cytotoxicity control for non-replicating M. tuberculosis project (AID 489025); format: functional
# cells = format: functional
# Cytochrome P450 2C9 = Cytochrome P450 2C9 (Homo sapiens, UniProt P11712)
# Sequence of Cytochrome P450 2C9 (P11712 whole entry): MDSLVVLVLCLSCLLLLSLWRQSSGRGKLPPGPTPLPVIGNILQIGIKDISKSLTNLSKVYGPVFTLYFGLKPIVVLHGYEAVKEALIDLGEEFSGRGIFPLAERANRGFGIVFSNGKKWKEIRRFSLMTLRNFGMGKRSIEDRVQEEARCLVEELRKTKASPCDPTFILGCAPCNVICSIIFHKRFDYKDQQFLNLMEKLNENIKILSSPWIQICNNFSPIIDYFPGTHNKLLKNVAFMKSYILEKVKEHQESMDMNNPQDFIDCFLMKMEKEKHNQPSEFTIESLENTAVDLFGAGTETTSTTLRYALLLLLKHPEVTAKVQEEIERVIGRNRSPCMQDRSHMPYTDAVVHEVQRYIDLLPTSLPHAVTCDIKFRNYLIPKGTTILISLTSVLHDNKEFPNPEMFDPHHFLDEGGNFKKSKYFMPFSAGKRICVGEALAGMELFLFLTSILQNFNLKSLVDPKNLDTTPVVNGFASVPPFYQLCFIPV
# Cytochrome P450 2D6 = Cytochrome P450 2D6 (Homo sapiens, UniProt P10635);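 also: CYP2D6 member of a cytochrome P450 panel assay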
# Sequence of Cytochrome P450 2D6 (P10635 whole entry): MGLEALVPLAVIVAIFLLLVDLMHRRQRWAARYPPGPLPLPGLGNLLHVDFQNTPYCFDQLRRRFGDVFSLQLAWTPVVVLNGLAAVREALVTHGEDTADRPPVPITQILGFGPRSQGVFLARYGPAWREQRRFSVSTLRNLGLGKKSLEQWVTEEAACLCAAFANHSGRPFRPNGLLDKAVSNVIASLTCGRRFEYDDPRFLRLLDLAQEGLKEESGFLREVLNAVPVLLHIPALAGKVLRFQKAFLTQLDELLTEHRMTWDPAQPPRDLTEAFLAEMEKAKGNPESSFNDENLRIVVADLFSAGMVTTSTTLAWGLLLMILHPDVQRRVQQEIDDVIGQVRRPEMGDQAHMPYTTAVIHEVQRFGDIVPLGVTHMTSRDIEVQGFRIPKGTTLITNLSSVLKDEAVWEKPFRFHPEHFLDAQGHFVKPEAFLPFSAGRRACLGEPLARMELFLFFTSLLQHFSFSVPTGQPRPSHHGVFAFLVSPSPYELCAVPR
# [15] = molecular target: T4, Rac GTPase-activating protein 1 (Homo sapiens, UniProt Q9H0H5); test: blockers of MgcRacGAP-driven Rac1 GTP hydrolysis – biochemical, ADP Hunter fluorescence, primary and confirmatory, confirmation (AID 624330); format: functional
# T4 sequence (Q9H0H5 whole entry): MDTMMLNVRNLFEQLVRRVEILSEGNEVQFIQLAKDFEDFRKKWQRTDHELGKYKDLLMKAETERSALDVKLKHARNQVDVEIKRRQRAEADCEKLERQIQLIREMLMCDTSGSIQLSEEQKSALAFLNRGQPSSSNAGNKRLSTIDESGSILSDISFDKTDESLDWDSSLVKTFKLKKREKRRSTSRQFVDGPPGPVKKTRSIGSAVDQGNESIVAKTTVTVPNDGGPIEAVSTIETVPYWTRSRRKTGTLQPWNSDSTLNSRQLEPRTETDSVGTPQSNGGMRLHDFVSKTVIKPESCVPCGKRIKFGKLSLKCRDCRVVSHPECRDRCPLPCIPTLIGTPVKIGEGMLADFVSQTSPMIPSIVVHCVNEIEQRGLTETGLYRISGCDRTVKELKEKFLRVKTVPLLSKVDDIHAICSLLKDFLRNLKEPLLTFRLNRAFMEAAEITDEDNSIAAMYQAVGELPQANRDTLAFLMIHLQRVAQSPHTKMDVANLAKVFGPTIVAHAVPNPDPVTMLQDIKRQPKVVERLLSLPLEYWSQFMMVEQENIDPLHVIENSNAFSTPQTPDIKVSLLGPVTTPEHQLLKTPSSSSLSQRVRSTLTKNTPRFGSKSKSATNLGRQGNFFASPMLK
# [16] = toxicity to human HepG2 hepatoma cells – cell-based, plate reader, dry powder samples, cytotoxicity control, dose response (AID 1159569); format: functional;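 also: inhibitor potency with signal falling toward the positive control level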
# [17] = toxicity to human hepatoma HepG2 cells – cell-based, cherry-picked samples, cytotoxicity control, dose response (AID 1159577); format: functional
# [18] = Dd2 malaria parasite growth inhibition potency – SYBR Green, dry powder samples, dose response (AID 1159566); format: functional, cell-based;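 also: potency for growth inhibition with lower SYBR green DNA signal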
# [19] = growth inhibition of yeast DHODH-expressing 3D7 parasites – SYBR Green, dry powder samples, dose response (AID 1159570); format: functional, cell-based;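 also: parasite growth measured after 72 hours of compound exposure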
# [20] = growth inhibition of PfATP4-mutant resistant parasites – NITD609-resistant line, SYBR Green, dry powder, dose response (AID 1159571); format: functional, cell-based;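 also: parasites synchronized at ring stage by sorbitol before testing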
# [21] = P. falciparum Dd2 growth inhibitors, dose response, SYBR Green, cherry-picked samples (AID 1159567); format: functional, cell-based
compound,measurement,setting,value
CCOC(=O)c1c(C)[nH]c(C(=O)OCC(=O)Nc2sc(C(=O)N(C)C)c(C)c2C(=O)OCC)c1C,EC50,[1],> 60 µM (not active)
same,IC50,[2],> 47.1 µM (inactive)
same,EC50,[3],0.36 µM (active)
same,CC50,[4],> 40 µM (active)
same,EC50,[5],> 53 µM (inactive)
Cc1cccc(CCN(C(=O)c2snc(C(N)=O)c2N)C(C(=O)NCC2CCCO2)c2ccc(F)cc2)c1 (centres undefined),EC50,[6],2.66 µM (active)
Cc1cc(C)cc(OCC(=O)Nc2nc3ccc([N+](=O)[O-])cc3s2)c1,IC50,HEK293 [7],8.1 µM (active)
same,IC50,HEK293 [8],1.83 µM (active)
same,IC50,HEK293 [9],> 20 µM (inactive)
same,EC50,HEK293 [10],4.56 µM (active)
same,EC50,[11],7.65 µM (active)
same,IC50,HEK293 [12],> 20 µM (inactive)
O=c1[nH]c2cc3c(cc2cc1CN(Cc1cccs1)Cc1nnnn1Cc1ccco1)OCCO3,IC50,Estrogen receptor,> 50 µM (not active)
CC(=O)CC1(OC(C)=O)C(=O)N(C)c2ccccc21 (centres undefined),CC50,[13],15.5 µM (active)
same,CC50,[14],35.5 µM (active)
same,IC50,cells,14.4 µM (active)
CC1CCc2sc3ncnc(N4CCOCC4)c3c2C1 (centres undefined),IC50,HEK293 [7],4.85 µM (active)
same,IC50,HEK293 [8],3.54 µM (active)
same,IC50,HEK293 [9],> 20 µM (inactive)
same,EC50,HEK293 [10],6.02 µM (active)
same,EC50,[11],8.76 µM (active)
same,IC50,HEK293 [12],> 20 µM (inactive)
CCOc1cc(/C=C2\C(=N)N3N=CSC3=NC2=O)ccc1OS(=O)(=O)c1ccccc1,EC50,[6],4.73 µM (active)
Cc1ccccc1C(=O)NC(C)c1ccc2c(c1)CCCC2 (centres undefined),AC50,Cytochrome P450 2C9,inconclusive
same,AC50,Cytochrome P450 2D6,15.8 µM (inconclusive)
C=CCc1ccc(OCCOCCNCCCC)c(OC)c1,IC50,[15],132 µM (active)
same,CC50,[4],> 40 µM (active)
Cc1ccc(C)c(S(=O)(=O)NCc2ccc(C(=O)N3CCC(Cc4ccccc4)CC3)cc2)c1,EC50,[1],> 60 µM (not active)
same,AC50,Cytochrome P450 2C9,inconclusive
same,EC50,[3],2.66 µM (active)
COc1ccc(-n2nc(C(=O)Nc3ccc(OC)c(OC)c3)c3c4ccccc4n(C)c3c2=O)cc1,IC50,Estrogen receptor,> 50 µM (not active)
COc1ccc(C)cc1NC(=O)CSc1ccc(-c2sc(C)nc2C)nn1,IC50,HEK293 [7],10.7 µM (inactive)
same,IC50,HEK293 [8],14.1 µM (active)
same,IC50,HEK293 [9],> 20 µM (inactive)
same,EC50,HEK293 [10],9.47 µM (active)
same,EC50,[11],4.63 µM (active)
same,IC50,HEK293 [12],> 20 µM (inactive)
c1ccc2[nH]c(CCCCc3nc4ccccc4[nH]3)nc2c1,EC50,[6],2.37 µM (active)
CCN(CC)c1nc2ccccc2[nH]1.Cl,AC50,Cytochrome P450 2C9,inconclusive
same,AC50,Cytochrome P450 2D6,25.1 µM (inconclusive)
CS(=O)(=O)N(CC(=O)NCc1ccco1)c1ccc2c(c1)OCO2,IC50,Estrogen receptor,40.1 µM (not active)
CC(OC(=O)c1cccc(O)c1)C(=O)N(C)Cc1ccccc1 (centres undefined),CC50,[4],> 40 µM (active)
CCOC(=O)C1=C(C)C/C(=N\NC(=O)c2ccccc2O)CC1,CC50,[13],15.3 µM (active)
same,CC50,[14],21.8 µM (active)
same,IC50,cells,10.8 µM (active)
O=C(N/N=C/c1ccc([N+](=O)[O-])s1)c1cccnc1,EC50,[1],> 60 µM (not active)
same,CC50,[13],14.6 µM (active)
same,CC50,[14],14.9 µM (active)
same,EC50,[3],0.429 µM (active)
same,IC50,cells,11.2 µM (active)
COc1ccccc1CN1C[C@@H]2N[C@H](C1)[C@@H]2c1ccc(-c2ccc(C#N)cc2)cc1,AC50,[16],7.43 µM (active)
same,AC50,[17],13.7 µM (active)
same,AC50,[18],1.68 µM (active)
same,AC50,[19],2.39 µM (active)
same,AC50,[20],2.8 µM (active)
same,AC50,[21],2.36 µM (active)
Clc1ccc(Nc2nc(-c3ccncc3)cs2)cc1,IC50,Estrogen receptor,18.2 µM (active)
same,EC50,[1],4 µM (active)
same,EC50,[3],0.329 µM (active)
